Consider ten molecules from US20260327232A1, “Heteroaryl Compounds as Ligand Directed Degraders of IRAK4” (Celgene Corporation, priority 2023, published 2026).

pEC50, pIC50: −log10 of the molar value. Counter-ions that a name gives are not always drawn. Bounds are passed on as bounds.

For test [1], the target named is T1, IRAK4 (Homo sapiens, UniProt Q9NWZ3).
T1 sequence (Q9NWZ3 1-460): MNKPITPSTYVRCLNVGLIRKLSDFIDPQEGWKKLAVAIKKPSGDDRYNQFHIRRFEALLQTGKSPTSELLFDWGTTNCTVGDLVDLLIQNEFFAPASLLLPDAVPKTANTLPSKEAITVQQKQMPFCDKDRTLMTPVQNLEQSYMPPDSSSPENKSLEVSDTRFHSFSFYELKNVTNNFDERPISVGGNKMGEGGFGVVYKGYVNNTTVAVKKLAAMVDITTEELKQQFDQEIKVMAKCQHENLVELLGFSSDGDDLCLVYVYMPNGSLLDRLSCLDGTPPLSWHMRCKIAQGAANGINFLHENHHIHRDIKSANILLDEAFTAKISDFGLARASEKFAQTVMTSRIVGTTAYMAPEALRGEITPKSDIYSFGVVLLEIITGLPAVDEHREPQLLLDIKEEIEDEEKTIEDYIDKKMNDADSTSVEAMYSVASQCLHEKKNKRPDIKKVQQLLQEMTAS
The experiment in a line: IRAK4 PhosphoSens Biochemical Assay (BIOCHEM). As to conditions: 200 μM ATP, 10 μM peptide substrate AQT0326, 1 nM IRAK4, room temperature, 240 minutes. The method, then: The PhosphoSens® biochemical assay was performed as described by the vendor (AssayQuant Technologies Inc. Marlborough, MA). A 1.25× stock solution of IRAK4 (PV4002, ThermoFisher Scientific, Waltham, MA) and a 5× stock solution of ATP and Sox conjugated peptide substrate, AQT0326 (CSKS-AQT0326B, AssayQuant Technologies), were prepared in 1× kinase reaction buffer consisting of 50 mM HEPES, pH 7.5, 0.01% Brij-35, 0.5 mM EGTA, 20 mM MgCl2 and 1 mM DTT. 10 μL of the ATP and substrate solution mix, for a final concentration of 200 μM ATP and 10 μM peptide substrate, was added to a Coming 3574 384-well, white, non-binding surface microtiter plate containing 0.5 μL of serially diluted test compounds prepared in DMSO. The reactions were started with the addition of 40 μL of the enzyme solution, for a final IRAK4 concentration of 1 nM, and monitored every 71 seconds for 240 minutes at λEX 360/λEM 485 in a BioTek Synergy H4 plate reader (Agilent Technologies, Santa Clara, CA) at room temperature. The initial linear portions of the progress curves were fit according to a linear equation to yield the slopes and converted to % inhibition based on a value of 100% activity for the no inhibitor treated control. IC50 values of each compound were obtained by fitting the % inhibition-compound concentration curves using Dotmatics software (Dotmatics, Bishops Stortford, Hertfordshire, England).

For test [2], the target named is T1, IRAK4. The experiment in a line: ALE THP1 HTRF (IRAK4 in THP1 cell lysates, Homogeneous Time Resolved Fluorescence). Type of test: cell-based. Particulars: THP1 cells. On the set-up: THP1 Homogeneous Time Resolved Fluorescence (ALE THP1 HTRF) Procedure; endogenous in cells; host or cells: THP1. The method, then: Cell culture media was prepared in a tissue culture hood in a sterile environment by adding 10% FBS and 1% Penicillin Streptomycin to 500 mL no phenol red RPMI 1640 media. The media was filtered through a Nalgene Bottle Top Filter and stored at 4° C.
For Homogenous Time Resolved Fluorescence (HTRF) assays, a Cisbio HTRF kit was used, which included: Lysis Buffer #1 4×, Blocking Reagent #3 100×, 20× Antibody 1 (Anti-IRAK4 d2), 20× Antibody 2 (Anti-IRAK4 k), and Detection Buffer.
4× Lysis Buffer was stored at 4° C. For use as 1× Lysis buffer, the 4× solution was diluted with de-ionized water (distilled water, Gibco Cat. #15230279) and 100× Blocking Reagent in a 1:3:0.04 volume ratio.
20× Antibody Solution aliquots were stored in −80° C. and the Detection Buffer was stored in 4° C. For use as a 1× Antibody Solution, the 20× Antibody Solution aliquot was diluted with Detection Buffer in a 1:19 volume ratio.
Cells were lysed at room temperature for 45 min with shaking. A BCA protein assay was performed and normalization was conducted to the desired total protein concentration with 1× lysis buffer. Next, 1× Antibody Solutions were prepared by adding 380 μL Detection Buffer to 20 μL 20× Antibody Solution aliquots and mixing well. 1× Antibody Solutions were combined 1:1 and briefly vortexed. For control wells, 20 μL 1× anti IRAK4-k Antibody Solution was saved. The 384-well plate (ProxiPlate-384 Plus, Perkin Elmer Cat. #6008289) was loaded by adding 4 μL of the mixed Antibody Solution to empty wells using a single channel repeater. Using a multi-channel repeater, 16 μL lysate was added per well, and any bubbles that were formed were popped with 20 μL pipette tips and Kimwipe edges. In column 10, triplicates of each control was prepared. In wells A10, B10, and C10, buffer control was prepared by adding 16 μL Lysis Buffer and 4 μL Detection Buffer. In wells D10, E10, and F10, cryptate control was prepared by adding 16 μL Lysis Buffer, 2 μL Detection Buffer, and 2 μL 1× anti IRAK4-k Antibody Solution. In wells G10, H10, and 110, a negative control was prepared by adding 16 μL Lysis Buffer and 4 μL mixed Antibody Solution. The plate was sealed with a clear seal and covered with an aluminum lid. The plate was spun down at 800 g for 5 min and incubated in the dark at room temperature overnight. The next day, the plate was spun down at 800 g for 5 min. The samples were analyzed by a plate reader (Envision, PerkinElmer) using the Desnor 384 HTRF program.

For `Cn1nc(C2CCC(=O)NC2=O)c2ccc(NC3CCN(CC4CCC(n5cc(NC(=O)c6cnn7ccc(N8CC[C@@H](F)[C@@H](N)C8)nc67)c(C(F)F)n5)CC4)CC3)cc21` (some centres unmarked) [P-21], the pIC50 on IRAK4 [1] is greater than 9.30. The same molecule gave a pEC50 at IRAK4 [2] of less than 5.00.
On to `Cn1nc(C2CCC(=O)NC2=O)c2ccc(N[C@@H]3CCN(CC4CCC(n5cc(NC(=O)c6cnn7ccc(N8C[C@H](N)C[C@@H](F)C8)nc67)c(C(F)F)n5)CC4)C[C@@H]3F)cc21` (some centres unmarked) [P-24], for which, on IRAK4 [1], the pIC50 is greater than 9.30. On IRAK4 [2], the pEC50 was 8.40.
For `Cn1nc(C2CCC(=O)NC2=O)c2ccc(N[C@H]3CCN(CC4CCC(n5cc(NC(=O)c6cnn7ccc(N8C[C@H](N)C[C@@H](F)C8)nc67)c(C(F)F)n5)CC4)C[C@@H]3F)cc21` (some centres unmarked) [P-25] the same measures were greater than 9.30 and 8.10.
`Cn1nc(C2CCC(=O)NC2=O)c2ccc(NC3CCN(CC4CCC(n5cc(NC(=O)c6cnn7ccc(N8CCOCC8)nc67)c(C(F)F)n5)CC4)CC3)cc21` (centres unmarked) [P-27, N-[3-(Difluoromethyl)-1-[4-[[4-[[3-(2,6-dioxo-3-piperidyl)-1-methyl-indazol-6-yl]amino]-1-piperidyl]methyl]cyclohexyl]pyrazol-4-yl]-5-morpholino-pyrazolo[1,5-a]pyrimidine-3-carboxamide formic acid salt]: the pIC50 on IRAK4 [1] is greater than 9.30. The pEC50 on IRAK4 [2] is 9.00.
For `CN(CC1CCC(n2cc(NC(=O)c3cnn4ccc(N5C[C@H](N)C[C@@H](F)C5)nc34)c(C(F)F)n2)CC1)C1CCN(c2ccc3c(C4CCC(=O)NC4=O)nn(C)c3c2)CC1` (some centres unmarked) [P-28, N-[3-(Difluoromethyl)-1-[4-[[[1-[3-(2,6-dioxo-3-piperidyl)-1-methyl-indazol-6-yl]-4-piperidyl]-methyl-amino]methyl]cyclohexyl]pyrazol-4-yl]-5-[(3r,5r)-3-amino-5-fluoro-1-piperidyl]pyrazolo[1,5-a]pyrimidine-3-carboxamide] the same measures were greater than 9.30 and 8.30.
In the case of `CN(CC1CCC(n2cc(NC(=O)c3cnn4ccc(N5C[C@H](N)C[C@@H](F)C5)nc34)c(C(F)F)n2)CC1)C1CCN(c2cccc3c(C4CCC(=O)NC4=O)nn(C)c23)CC1` (stereo partly drawn) [P-30, N-[3-(difluoromethyl)-1-[4-[[[1-[3-(2,6-dioxo-3-piperidyl)-1-methyl-indazol-7-yl]-4-piperidyl]-methyl-amino]methyl]cyclohexyl]pyrazol-4-yl]-5-[(3R,5R)-3-amino-5-fluoro-1-piperidyl]pyrazolo[1,5-a]pyrimidine-3-carboxamide], the pIC50 on IRAK4 [1] was greater than 9.30. This molecule also had a pEC50 at IRAK4 [2] of 7.85.
For `CN(c1cccc2c(C3CCC(=O)NC3=O)nn(C)c12)C1CCN(CCC2CCC(n3cc(NC(=O)c4cnn5ccc(N6CCOCC6)nc45)c(C(F)F)n3)CC2)CC1` (centres unmarked) [P-39] the same measures were greater than 9.30 and less than 5.00.
For `CN(CC1CCC(n2cc(NC(=O)c3cnn4ccc(N5C[C@H]6CC[C@@H](C5)O6)nc34)c(C(F)F)n2)CC1)C1CCN(c2ccc3c(C4CCC(=O)NC4=O)nn(C)c3c2)CC1` (some centres unmarked) [P-42] the same measures were greater than 9.30 and less than 5.00.
As for `CN(CC1CCC(n2cc(NC(=O)c3cnn4ccc(N5Cc6cnn(C)c6C5)nc34)c(C(F)F)n2)CC1)C1CCN(c2ccc3c(C4CCC(=O)NC4=O)nn(C)c3c2)CC1` (centres unmarked) [P-49], the pIC50 at IRAK4 [1] was 9.10. On IRAK4 [2], this molecule had a pEC50 of less than 5.00.
For `CN(CC1CCC(n2cc(NC(=O)c3cnn4ccc(N5CC[C@H](C#N)C5)nc34)c(C(F)F)n2)CC1)C1CCN(c2ccc3c(C4CCC(=O)NC4=O)nn(C)c3c2)CC1` (some centres unmarked) [P-50], the pIC50 on IRAK4 [1] is 9.10. At IRAK4 [2], the pEC50 was less than 5.00.
